Assay results: the supplement of paper PMC4862054
Where “and” joins values, the source holds several entries; their conditions need not be identical. Identical values can stand only once.

Assays:
Settings in all cases: incubation time: 72 h
[1] = test system: CAL-148; assay: normalised viability (% of control), CellTiter-Blue; higher = more viable cells (about 100 = DMSO control)
Outline: (§1)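 Breast cancer cell lines in 20 µl suspension were seeded onto 384-well plates pre-loaded with compound dissolved in 5 µl medium, then incubated 72 h. CellTiter-Blue reagent (2.5 µl) was added for 2 h at 37 °C and fluorescence read at 560/590 nm. Each plate was normalised to vehicle (100) and a positive kill control (0), with Z'-factor quality control. The value is normalised viability at one listed concentration of the series.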

[2] = test system: HDQ-P1; assay: as above
Outline: as §1

[3] = test system: DU-4475; assay: as above
Outline: as §1

[4] = test system: CAL-85-1; assay: as above
Outline: as §1

[5] = test system: CAL-148; assay: drug sensitivity score (DSS), CellTiter-Glo (DSS (AUC-based score)); higher = stronger drug effect (viability inhibition or cytotoxicity); extreme values may be limits of the assay
Outline: (§2)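 The drug sensitivity score reflects the area under a fitted dose-response curve. To obtain it, breast cancer cells in 20 µl suspension were seeded into 384-well plates containing compound at 5 concentrations, 10-fold apart over a compound-specific 10,000-fold range, and incubated 72 h. CellTox Green fluorescence (485/520 nm) was read first and CellTiter-Glo luminescence second, after 10 min at room temperature. Each plate was normalised to 0.1 % DMSO and a positive kill control.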

[6] = test system: Hs578T; assay: as above
Outline: as §2

[7] = test system: MDA-MB-468; assay: as above
Outline: as §2

[8] = test system: MCF-10A; assay: as above
Outline: as §2

[9] = test system: HDQ-P1; assay: as above
Outline: as §2

[10] = test system: DU-4475; assay: as above
Outline: as §2

[11] = test system: CAL-120; assay: as above
Outline: as §2

[12] = test system: MDA-MB-453; assay: as above
Outline: as §2

[13] = test system: HCC1937; assay: as above
Outline: as §2

[14] = test system: MDA-MB-231; assay: as above
Outline: as §2

[15] = test system: BT-474; assay: as above
Outline: as §2

[16] = test system: HCC1143; assay: as above
Outline: as §2

[17] = test system: CAL-51; assay: as above
Outline: as §2

[18] = test system: SK-BR-3; assay: as above
Outline: as §2

[19] = test system: BT-549; assay: as above
Outline: as §2

[20] = test system: CAL-85-1; assay: as above
Outline: as §2

[21] = test system: MDA-MB-436; assay: as above
Outline: as §2

[22] = test system: HCC1599; assay: as above
Outline: as §2

[23] = test system: MFM-223; assay: as above
Outline: as §2

[24] = test system: Hs578T; assay: normalised viability (% of control), CellTiter-Blue; higher = more viable cells (about 100 = DMSO control)
Outline: as §1

[25] = test system: BT-474; assay: as above
Outline: as §1

[26] = test system: CAL-51; assay: as above
Outline: as §1

Structure (SMILES)	normalised viability [1]	normalised viability [2]	normalised viability [3]	normalised viability [4]	drug sensitivity score [5]	drug sensitivity score [6]	drug sensitivity score [7]	drug sensitivity score [8]	drug sensitivity score [9]	drug sensitivity score [10]	drug sensitivity score [11]	drug sensitivity score [12]	drug sensitivity score [13]	drug sensitivity score [14]	drug sensitivity score [15]	drug sensitivity score [16]	drug sensitivity score [17]	drug sensitivity score [18]	drug sensitivity score [19]	drug sensitivity score [20]	further results
CC(C)C(=O)Nc1ccc([N+](=O)[O-])c(C(F)(F)F)c1 [Flutamide] (1000 nM)	104%	101%	102%	84.2%	–	–	–	–	–	–	–	–	–	–	–	–	–	–	–	–	–
Nc1nc(Cl)nc2c1ncn2[C@@H]1O[C@H](CO)[C@@H](O)[C@@H]1F [Clofarabine] (1000 nM)	40.8%	101%	29%	56.1%	–	–	–	–	–	–	–	–	–	–	–	–	–	–	–	–	–
O=C(c1cc(Cc2n[nH]c(=O)c3ccccc23)ccc1F)N1CCN(C(=O)C2CC2)CC1 [Olaparib] (1000 nM)	84.3%	104%	81.1%	85.8%	–	–	–	–	–	–	–	–	–	–	–	–	–	–	–	–	–
CC(C)C[C@H](NC(=O)[C@H](CCc1ccccc1)NC(=O)CN1CCOCC1)C(=O)N[C@@H](Cc1ccccc1)C(=O)N[C@@H](CC(C)C)C(=O)[C@@]1(C)CO1 [Carfilzomib] (100 nM)	2.75%	0.52%	1.6%	3.69%	–	–	–	–	–	–	–	–	–	–	–	–	–	–	–	–	–
O=NN(CCCl)C(=O)NC1CCCCC1 [Lomustine] (1000 nM)	92.3%	97.6%	90.6%	93.3%	–	–	–	–	–	–	–	–	–	–	–	–	–	–	–	–	–
NC1(c2ccc(-c3nc4ccn5c(=O)[nH]nc5c4cc3-c3ccccc3)cc2)CCC1 [MK-2206] (100 nM)	91.5%	82.9%	92.7%	86.7%	–	–	–	–	–	–	–	–	–	–	–	–	–	–	–	–	–
C[C@@H](C(=O)O)c1ccc(-c2ccccc2)c(F)c1 [Tarenflurbil] (1000 nM)	92.5%	83.2%	108%	90%	–	–	–	–	–	–	–	–	–	–	–	–	–	–	–	–	–
C[C@]12C=CC(=O)C=C1CC[C@@H]1[C@@H]2C(=O)C[C@@]2(C)[C@H]1CC[C@]2(O)C(=O)CO [Prednisone] (1000 nM)	101%	122%	96.3%	94.2%	–	–	–	–	–	–	–	–	–	–	–	–	–	–	–	–	–
Cc1cc2c(F)c(Oc3ncnn4cc(OC[C@@H](C)O)c(C)c34)ccc2[nH]1 [Brivanib] (100 nM)	111%	110%	104%	87%	–	–	–	–	–	–	–	–	–	–	–	–	–	–	–	–	–
CCCCCOC(=O)Nc1nc(=O)n([C@@H]2O[C@H](C)[C@@H](O)[C@H]2O)cc1F [Capecitabine] (1000 nM)	105% and 102%	–	87.4% and 85.9%	79.7% and 96.2%	–	–	–	–	–	–	–	–	–	–	–	–	–	–	–	–	–
COc1cc2c(Oc3ccc(NC(=O)C4(C(=O)Nc5ccc(F)cc5)CC4)cc3F)ccnc2cc1OCCCN1CCOCC1 [Foretinib]	–	–	–	–	1.11	0	1.64	1.41	0	0	2.45	0	0	2.4	2.19	1.22	1.01	0	0	0	drug sensitivity score [21]: 0.456; drug sensitivity score [22]: 0; drug sensitivity score [23]: 6.22; normalised viability ([24]; 1 nM): 114%; normalised viability ([24]; 100 nM): 106%; normalised viability ([24]; 1000 nM): 61%; normalised viability ([25]; 1 nM): 102%; normalised viability ([25]; 100 nM): 117%; normalised viability ([25]; 1000 nM): 84.3%; normalised viability ([26]; 0.3 nM): 99.1%; normalised viability ([26]; 3 nM): 88.6%; normalised viability ([26]; 10 nM): 95.2%
CC(C)C(=O)Nc1ccc([N+](=O)[O-])c(C(F)(F)F)c1 [Flutamide]	–	–	–	–	0	0	0	0	0	0	0	0	0	0	0	0	0.0535	0	0	0	drug sensitivity score [21]: 0; drug sensitivity score [22]: 0; drug sensitivity score [23]: 0; normalised viability ([24]; 10 nM): 96.4%; normalised viability ([24]; 1000 nM): 109%; normalised viability ([24]; 10000 nM): 96.7%; normalised viability ([25]; 10 nM): 117%; normalised viability ([25]; 1000 nM): 115%; normalised viability ([25]; 10000 nM): 116%; normalised viability ([26]; 3 nM): 118%; normalised viability ([26]; 30 nM): 108%; normalised viability ([26]; 100 nM): 106%
C[C@@H]1C[C@H]2[C@@H]3CCC4=CC(=O)C=C[C@]4(C)[C@@]3(F)[C@@H](O)C[C@]2(C)[C@@]1(O)C(=O)CO [Dexamethasone]	–	–	–	–	0	0	0	0	4.16	0	10.1	4	0	0	0	0	0	0	0	0	drug sensitivity score [21]: 0; drug sensitivity score [22]: 0; drug sensitivity score [23]: 0; normalised viability ([24]; 10 nM): 120%; normalised viability ([24]; 1000 nM): 122%; normalised viability ([24]; 10000 nM): 98%; normalised viability ([25]; 10 nM): 110%; normalised viability ([25]; 1000 nM): 119%; normalised viability ([25]; 10000 nM): 118%; normalised viability ([26]; 3 nM): 106%; normalised viability ([26]; 30 nM): 91.9%; normalised viability ([26]; 100 nM): 95.6%
O=NN(CCCl)C(=O)NC1CCCCC1 [Lomustine]	–	–	–	–	0	0	0	0	0	0	0	0	0	0	0	0	0	0	0	0	drug sensitivity score [21]: 0; drug sensitivity score [22]: 0; drug sensitivity score [23]: 0; normalised viability ([24]; 10 nM): 105%; normalised viability ([24]; 1000 nM): 98.1%; normalised viability ([24]; 10000 nM): 98.7%; normalised viability ([25]; 10 nM): 108%; normalised viability ([25]; 1000 nM): 114%; normalised viability ([25]; 10000 nM): 128%; normalised viability ([26]; 3 nM): 110%; normalised viability ([26]; 30 nM): 109%; normalised viability ([26]; 100 nM): 110%
NC(=O)c1cccc2cn(-c3ccc([C@@H]4CCCNC4)cc3)nc12 [MK-4827]	–	–	–	–	0.954	0	1.06	0	0	2.22	0	0	0	0	0	0	0	0	0	0	drug sensitivity score [21]: 3.73; drug sensitivity score [22]: 0; drug sensitivity score [23]: 0; normalised viability ([24]; 10 nM): 96.2%; normalised viability ([24]; 1000 nM): 93.7%; normalised viability ([24]; 10000 nM): 80.7%; normalised viability ([25]; 10 nM): 119%; normalised viability ([25]; 1000 nM): 100%; normalised viability ([25]; 10000 nM): 92.7%; normalised viability ([26]; 3 nM): 112%; normalised viability ([26]; 30 nM): 105%; normalised viability ([26]; 100 nM): 104%
CO[C@H](C(=O)[C@@H](O)[C@@H](C)O)[C@@H]1Cc2cc3cc(O[C@H]4C[C@@H](O[C@@H]5C[C@@H](O)[C@H](O)[C@@H](C)O5)[C@H](O)[C@@H](C)O4)c(C)c(O)c3c(O)c2C(=O)[C@H]1O[C@H]1C[C@@H](O[C@@H]2C[C@@H](O)[C@@H](O[C@@H]3C[C@](C)(O)[C@H](O)[C@@H](C)O3)[C@@H](C)O2)[C@H](O)[C@@H](C)O1 [Plicamycin]	–	–	–	–	4.43	4.2	6.69	4.28	2.83	5.55	2.12	3.11	4.37	5.67	6.47	4.54	18.2	3.86	7.16	4.1	drug sensitivity score [21]: 2.49; drug sensitivity score [22]: 3.99; drug sensitivity score [23]: 1.97; normalised viability ([24]; 10 nM): 100% and 82.1%; normalised viability ([24]; 1000 nM): 3.62% and 2.96%; normalised viability ([24]; 10000 nM): 2.27% and 1.73%; normalised viability ([25]; 10 nM): 122% and 103%; normalised viability ([25]; 1000 nM): 36% and 23.9%; normalised viability ([25]; 10000 nM): 22.1% and 26.4%; normalised viability ([26]; 3 nM): 99.7% and 119%; normalised viability ([26]; 30 nM): 96.1% and 112%; normalised viability ([26]; 100 nM): 62.3% and 61.2%
NC(=O)NO [Hydroxyurea]	–	–	–	–	0	0	0	0	0	0	0	0	0	0	0	0	16.2	0	1.87	0	drug sensitivity score [21]: 0; drug sensitivity score [22]: 0; drug sensitivity score [23]: 0; normalised viability ([24]; 100 nM): 110%; normalised viability ([24]; 10000 nM): 104%; normalised viability ([24]; 100000 nM): 90.3%; normalised viability ([25]; 100 nM): 110%; normalised viability ([25]; 10000 nM): 111%; normalised viability ([25]; 100000 nM): 110%; normalised viability ([26]; 30 nM): 103%; normalised viability ([26]; 300 nM): 107%; normalised viability ([26]; 1000 nM): 104%
CN1CCN(c2nc(C3=C(c4c[nH]c5ccccc45)C(=O)NC3=O)c3ccccc3n2)CC1 [Sotrastaurin]	–	–	–	–	0	0	0	0	0.186	1.72	0	0	0	0	0	0	0	1.56	0	0	drug sensitivity score [21]: 0; drug sensitivity score [22]: 0; drug sensitivity score [23]: 0; normalised viability ([24]; 10 nM): 98.7%; normalised viability ([24]; 1000 nM): 98.4%; normalised viability ([24]; 10000 nM): 87.2%; normalised viability ([25]; 10 nM): 112%; normalised viability ([25]; 1000 nM): 109%; normalised viability ([25]; 10000 nM): 94.6%; normalised viability ([26]; 3 nM): 94.4%; normalised viability ([26]; 30 nM): 91%; normalised viability ([26]; 100 nM): 90.9%
